This is an account of results in PMC12644462, “A novel radiosensitizer α-sulfoquinovosyl-acylpropanediol (SQAP) inhibits DNA repair pathways and sensitize cells to cancer chemotherapeutic agents” (Scientific Reports, 2025).

As a reminder, the IC50 is the point on the concentration scale where inhibition reaches its midpoint.

The target in one assay is T1, Topo I (Homo sapiens, UniProt P11387).
T1 sequence (P11387 1-765): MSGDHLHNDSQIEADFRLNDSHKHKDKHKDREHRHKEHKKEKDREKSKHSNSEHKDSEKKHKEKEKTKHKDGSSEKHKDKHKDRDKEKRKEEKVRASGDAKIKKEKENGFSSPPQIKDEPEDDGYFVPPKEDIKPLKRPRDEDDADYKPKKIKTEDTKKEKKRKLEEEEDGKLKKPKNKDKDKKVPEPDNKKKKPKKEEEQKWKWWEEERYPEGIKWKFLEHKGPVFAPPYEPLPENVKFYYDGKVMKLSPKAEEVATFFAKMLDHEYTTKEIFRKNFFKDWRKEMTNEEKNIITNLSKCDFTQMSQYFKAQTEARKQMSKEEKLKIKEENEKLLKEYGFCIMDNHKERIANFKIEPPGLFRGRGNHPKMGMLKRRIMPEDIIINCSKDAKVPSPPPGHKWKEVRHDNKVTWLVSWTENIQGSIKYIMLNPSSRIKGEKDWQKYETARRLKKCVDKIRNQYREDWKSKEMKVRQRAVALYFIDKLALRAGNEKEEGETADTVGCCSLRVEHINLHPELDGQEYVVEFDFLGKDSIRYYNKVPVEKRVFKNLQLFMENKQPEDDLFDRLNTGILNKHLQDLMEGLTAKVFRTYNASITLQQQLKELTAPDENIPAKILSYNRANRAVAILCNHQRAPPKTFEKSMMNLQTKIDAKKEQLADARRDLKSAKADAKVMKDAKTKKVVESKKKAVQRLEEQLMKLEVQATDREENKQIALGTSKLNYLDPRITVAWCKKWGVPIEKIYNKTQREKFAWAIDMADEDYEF
Put plainly: Topoisomerase I assay. The class given is biochemical. The following applies: supercoiled pHOT1 DNA, 37 °C, 30 min. The protocol: For topoisomerase (Topo) I assay, a mixture of 125 ng of supercoiled pHOT1 DNA, 1U of Topo I enzyme, and various concentrations of SQAP in 1 mM Tris-HCl (pH7.9), 0.1 mM EDTA, 0.015 M NaCl, 0.01% BSA, 0.01 mM Spermidine and 0.5% glycerol was incubated at 37 °C for 30 min. For Topo II alpha assay, a mixture of 10 µL containing of 50 ng of […] DNA in 0.05 M Tris-HCl (pH8), 1U of Topo II alpha, various concentrations of SQAP in 0.15 M NaCl, 10 mM MgCl2, 0.5mM DTT, 30 µg/mL of BSA, 2 mM ATP was incubated at 37 °C for 30 min. After the reaction was terminated, electrophoresis was conducted at 50 V for 3 h, followed by ethidium bromide staining. DNA images were obtained by a Bio-Rad imager (Bio-Rad, Hercules, CA, USA) and quantified with Image Lab software (Bio-Rad).

The test system of the next assay is HDAC1 expression. On the set-up: method as in PMID 33577659. Conditions: hypoxic conditions ref 11; cited from earlier work.
The next assay has as its system CHO cells. Description: G2 premature chromosome condensation (PCC) assay. The format is cell-based, Chinese hamster. The protocol:
Following treatment with SQAP for 1 h, exponentially growing CHO cells were irradiated and treated with 50 nM of Calyculin A (Sigma-Aldrich) for 30 min as previously described. Cells were then fixed and stained as chromosome aberration analysis. Under a Zeiss Axioskop microscope, chromatid gaps, breaks, iso-breaks and exchanges were all scored as G2-PCC chromatid breaks. At least 50 PCC-spreads were scored in three independent experiments.

Consider `CCCCCCCCCCCCCCCCCC(=O)OCCCO[C@H]1O[C@H](CS(=O)(=O)O)[C@@H](O)[C@H](O)[C@H]1O` [SQAP, Alpha-sulfoquinovosylacyl-1,3-propanediol], for which, on Topo I, the midpoint of inhibition, the IC50, lay at 25 µM. Further, the HDAC1 expression entry in the assay with HDAC1 expression was “reduces”. Also, the “residual PCC levels” value with CHO cells (1 Gy, after 2 h, with SQAP) is listed as about 4.8. In addition, the “number of G2-PCC chromatid breaks” value with CHO cells (immediately after 1 Gy irradiation, SQAP-treated) was “approximately 10”.
